Data taken from patent publication US9351918B2, “Polyglycerol-azelaic acid polyesters for cosmetic applications” (GIULIANI S.P.A., priority 2012, dated 2016).

Experiments:
[1] = test system: TNF-α gene expression in human keratinocytes NCTC 2544; assay: Anti-inflammatory test on NCTC2544: TNF-α gene expression by RT-PCR with LPS from E. coli; format: cell-based; settings: 20 μM together with LPS 5 μg/ml, 24 hours
Procedure: The anti-inflammatory effects were investigated of polyglyceryl-3 azelaiate oligomers (POLY-AZ) obtained with the method in Example 1 in an in vitro model of inflammation on human keratinocytes NCTC2544, and using lipopolysaccharide
(LPS) from E. coli to mediate inflammation or irritation. The effect of the derivative in the models used was compared with that of azelaic acid (AZ-ACID), a known anti-inflammatory agent.
(§1) The TNF-α gene expression in NCTC 2544 was evaluated using RT-PCR.
There are four phases to the gene expression analysis:
1. Treatment of cells with active compounds for 16, 24 and 48 hours; […]
(§2) The extracted and quantified total RNA was amplified using the “High Capacity cDNA Reverse Transcription Kit” (Applied Biosystems). […]
(§3) The relative quantification method was used which compares the relative concentration of the gene of interest (target) in unknown samples to a calibrator or control sample (untreated cells). […]
(§4) The data provided by the Stratagene Mx3000P tool was recorded by the MXpro v.4.01 software. […]
Following the preliminary model validation experiment described above, the TNF-α gene expression was evaluated using RT-PCR on NCTC 2544 cells, after treatments with 20 μM of polyglyceryl-3-azelaiate and 20 μM of azelaic acid together with LPS at 5 μg/ml in the culture medium to evaluate the anti-inflammatory effect of the two compounds. […]

[2] = test system: TNF-α gene expression in human keratinocytes NCTC 2544; assay: Test of irritancy potential in NCTC2544: TNF-α gene expression by RT-PCR, compared with LPS positive control; format: cell-based; settings: 20 μM, 24 hours
Procedure: The irritant potential of the derivative (POLY-AZ) was also determined in vitro compared with a positive control (cells treated with 5 μg/ml of lipopolysaccharide). The results were compared with those obtained using azelaic acid (AZ-ACID) in the same experimental model.
as §1
Test of Irritancy Potential in NCTC2544
When the cells (human keratinocytes NCTC 2544) reached approximately 80% confluence, they were separated with trypsin/EDTA and seeded at a density of 1×10^6 cells/ml in a 12-well plate and then incubated at 37° C., 5% CO2 (24 hours).
Day 2: 24-Hour Exposure to Substances […]
as §2, §3, §4
The TNF-α gene expression in NCTC 2544 cells was also evaluated after treatments with 20 μM of polyglyceryl-3-azelaiate and 20 μM of azelaic acid compared with cells treated with LPS (5 μg/ml) in the culture medium, in order to compare the effects of these compounds against a known irritant agent (LPS). […]

## O=C(O)CCCCCCCC(=O)O [azelaic acid, nonanedioic acid]
[1]
  Inhibitory effect on TNF-α gene expression (anti-inflammatory effect): does not produce an inhibitory effect
[2]
  Irritancy potential: neither are irritating
